Data as given in patent US5849701A, “Peptide inhibitors of fibronectin and related collagen-binding proteins” (The United States of America as represented by the …, priority 1995, dated 1998).
Where no end group is shown, it is not given here.

B1: ovalbumin: control protein (protein, UniProt P01012 2-386, looked up)
Ovalbumin: GSIGAASMEFCFDVFKELKVHHANENIFYCPIAIMSALAMVYLGAKDSTRTQINKVVRFDKLPGFGDSIEAQCGTSVNVHSSLRDILNQITKPNDVYSFSLASRLYAEERYPILPEYLQCVKELYRGGLEPINFQTAADQARELINSWVESQTNGIIRNVLQPSSVDSQTAMVLVNAIVFKGLWEKAFKDEDTQAMPFRVTEQESKPVQMMYQIGLFRVASMASEKMKILELPFASGTMSMLVLLPDEVSGLEQLESIINFEKLTEWTSSNVMEERKIKVYLPRMKMEEKYNLTSVLMAMGITDVFSSSANLSGISSAESLKISQAVHAAHAEINEAGREVVGSAEAGVDAASVSEEFRADHPFLFCIKHIATNAVLFFGRCVSP

Legend:
fibronectin [1] = biological target: T1, fibronectin (Homo sapiens, UniProt P02751); test: Inhibition of 125I-fibronectin binding to immobilized peptide GlyGlyTrpSerHisTrp; conditions: wells coated with 50 μg/ml peptide; 0.5 μg/ml 125I-fibronectin
Protocol: Microtiter plate wells were coated with 50 μg/ml of peptide GlyGlyTrpSerHisTrp (SEQ ID NO: 1) as in Example 1. Binding of ^125 I-fibronectin (0.5 μg/ml) to bound peptide was determined in the presence of increasing amounts of the peptides: FIG. 2A: the peptides are GlyGlyTrpSerHisTrp (SEQ ID NO: 1) (.circle-solid.); GlyGlyTrpSerLysTrp (SEQ ID NO: 9) (.tangle-solidup.); GlyGlyTyrSerHisTrp (SEQ ID NO: 10) (.box-solid.) and GlyGlyTrpSerHisTyr (SEQ ID NO: 11) (.tangle-soliddn.); FIG. 2B: GlyGlyTrpSerHisTrp (SEQ ID NO: 1) (-); GlyGlyTrpThrHisTrp (SEQ ID NO: 12) (.tangle-solidup.); GlyGlyTrpAlaHisTrp (SEQ ID NO: 13) (.box-solid.); GlyTrpSerHisTrp (SEQ ID NO: 14) (+); AlaAlaTrpSerHisTrp (SEQ ID NO: 21) (.tangle-soliddn.); and AspGlyTrpSerHisTrp (SEQ ID NO: 22) (.quadrature.).
Binding of ^125 1-fibronectin (0.5 μg/ml) to microtiter plate wells coated with 50 μg/ml of peptide GlyGlyTrpSerHisTrp (SEQ ID NO: 1) was determined in the presence of synthetic peptide GlyGlyTrpSerHisTrp (SEQ ID NO: 1), fibronectin or thrombospondin.
Microtiter plates were coated with 50 μg/ml of synthetic peptide GlyGlyTrpSerHisTrp (SEQ ID NO: 1) as described in Example 1. Binding of 125I-fibronectin (0.5 μg/ml) to the bound peptide was determined in the presence of proteolytic fragments of fibronectin, which were obtained from Telios Pharmaceuticals, Inc. San Diego, Calif. The proteolytic fragments included intact fibronectin; 30 kDa gelatin-binding domain; 33 kDa recombinant cell binding domain; 28 kDa recombinant cell binding domain and transferrin.

fibronectin [2] = biological target: T1, fibronectin; test: Inhibition of fibronectin binding to immobilized native type I collagen
Protocol: (§1) Wells of a microtiter plate were incubated for 3 hours at 25° C. with […] gelatin in Dulbecco's PBS. The wells were emptied and incubated with Dulbecco's PBS containing 1% BSA for 30 minutes. The wells were emptied and incubated with 0.5 μg/ml ^125 I-fibronectin in the presence of peptide GlyGlyTrpSerHisTrp (SEQ ID NO: 1) (.circle-solid.); GlyGlyTrpSerLysTrp (SEQ ID NO: 9) (.tangle-solidup.); GlyGlyTyrSerHisTrp (SEQ ID NO: 10) (.box-solid.); or GlyGlyTrpSerHisTyr (SEQ ID NO: 11) (.tangle-soliddn.) for 2 hours at 25° C. The wells were washed 4 times with PBS, cut from the plate and the bound radioactivity was counted.
A ligand binding assay as described in Example 5 was performed except that microtiter plates were coated with immobilized native type I collagen in place of gelatin.

fibronectin [3] = biological target: T1, fibronectin; test: Inhibition of 125I-fibronectin binding to gelatin; conditions: 0.5 μg/ml 125I-fibronectin, 2 hours at 25° C.
Protocol: as §1

fibronectin [4] = biological target: T1, fibronectin; test: Direct binding of 125I-fibronectin to immobilized peptides
Protocol: Fibronectin was isolated from platelet-depleted plasma as described (Ariyama, et al. 1985, J. Biol. Chem. 260:4492-4500) and iodinated using Iodogen (Pierce Chemical Co., Rockford, Ill.) as described (Roberts, et al. 1987, J. Cell. Biol. 104:131-139).
Direct binding of the fibronectin to immobilized peptides was carried out by first absorbing the peptides on polyvinyl chloride microtiter wells for 3 hours at 25° C. at the indicated concentrations. Unbound peptides were removed by washing and wells were incubated for 30 minutes in tris-BSA (50 mM tris-HCl, pH7-8, 110 mm NaCl, 1% BSA) (Sigma fatty acid and globulin-free, 0.1% NaN3). The wells were washed and incubated with […] of 0.5 μg/ml ^125 I-fibronectin for 2 hours at 25° C. The wells were washed five times with Dulbecco's phosphate buffered saline and cut from the plate and bound radioactivity was counted.
The peptides listed in Table 1 were synthesized as described above and absorbed to microtiter wells. […] This peptide sequence is located in the second type I repeat of the human-ThbsI gene.

T1 sequence (P02751 32-2477): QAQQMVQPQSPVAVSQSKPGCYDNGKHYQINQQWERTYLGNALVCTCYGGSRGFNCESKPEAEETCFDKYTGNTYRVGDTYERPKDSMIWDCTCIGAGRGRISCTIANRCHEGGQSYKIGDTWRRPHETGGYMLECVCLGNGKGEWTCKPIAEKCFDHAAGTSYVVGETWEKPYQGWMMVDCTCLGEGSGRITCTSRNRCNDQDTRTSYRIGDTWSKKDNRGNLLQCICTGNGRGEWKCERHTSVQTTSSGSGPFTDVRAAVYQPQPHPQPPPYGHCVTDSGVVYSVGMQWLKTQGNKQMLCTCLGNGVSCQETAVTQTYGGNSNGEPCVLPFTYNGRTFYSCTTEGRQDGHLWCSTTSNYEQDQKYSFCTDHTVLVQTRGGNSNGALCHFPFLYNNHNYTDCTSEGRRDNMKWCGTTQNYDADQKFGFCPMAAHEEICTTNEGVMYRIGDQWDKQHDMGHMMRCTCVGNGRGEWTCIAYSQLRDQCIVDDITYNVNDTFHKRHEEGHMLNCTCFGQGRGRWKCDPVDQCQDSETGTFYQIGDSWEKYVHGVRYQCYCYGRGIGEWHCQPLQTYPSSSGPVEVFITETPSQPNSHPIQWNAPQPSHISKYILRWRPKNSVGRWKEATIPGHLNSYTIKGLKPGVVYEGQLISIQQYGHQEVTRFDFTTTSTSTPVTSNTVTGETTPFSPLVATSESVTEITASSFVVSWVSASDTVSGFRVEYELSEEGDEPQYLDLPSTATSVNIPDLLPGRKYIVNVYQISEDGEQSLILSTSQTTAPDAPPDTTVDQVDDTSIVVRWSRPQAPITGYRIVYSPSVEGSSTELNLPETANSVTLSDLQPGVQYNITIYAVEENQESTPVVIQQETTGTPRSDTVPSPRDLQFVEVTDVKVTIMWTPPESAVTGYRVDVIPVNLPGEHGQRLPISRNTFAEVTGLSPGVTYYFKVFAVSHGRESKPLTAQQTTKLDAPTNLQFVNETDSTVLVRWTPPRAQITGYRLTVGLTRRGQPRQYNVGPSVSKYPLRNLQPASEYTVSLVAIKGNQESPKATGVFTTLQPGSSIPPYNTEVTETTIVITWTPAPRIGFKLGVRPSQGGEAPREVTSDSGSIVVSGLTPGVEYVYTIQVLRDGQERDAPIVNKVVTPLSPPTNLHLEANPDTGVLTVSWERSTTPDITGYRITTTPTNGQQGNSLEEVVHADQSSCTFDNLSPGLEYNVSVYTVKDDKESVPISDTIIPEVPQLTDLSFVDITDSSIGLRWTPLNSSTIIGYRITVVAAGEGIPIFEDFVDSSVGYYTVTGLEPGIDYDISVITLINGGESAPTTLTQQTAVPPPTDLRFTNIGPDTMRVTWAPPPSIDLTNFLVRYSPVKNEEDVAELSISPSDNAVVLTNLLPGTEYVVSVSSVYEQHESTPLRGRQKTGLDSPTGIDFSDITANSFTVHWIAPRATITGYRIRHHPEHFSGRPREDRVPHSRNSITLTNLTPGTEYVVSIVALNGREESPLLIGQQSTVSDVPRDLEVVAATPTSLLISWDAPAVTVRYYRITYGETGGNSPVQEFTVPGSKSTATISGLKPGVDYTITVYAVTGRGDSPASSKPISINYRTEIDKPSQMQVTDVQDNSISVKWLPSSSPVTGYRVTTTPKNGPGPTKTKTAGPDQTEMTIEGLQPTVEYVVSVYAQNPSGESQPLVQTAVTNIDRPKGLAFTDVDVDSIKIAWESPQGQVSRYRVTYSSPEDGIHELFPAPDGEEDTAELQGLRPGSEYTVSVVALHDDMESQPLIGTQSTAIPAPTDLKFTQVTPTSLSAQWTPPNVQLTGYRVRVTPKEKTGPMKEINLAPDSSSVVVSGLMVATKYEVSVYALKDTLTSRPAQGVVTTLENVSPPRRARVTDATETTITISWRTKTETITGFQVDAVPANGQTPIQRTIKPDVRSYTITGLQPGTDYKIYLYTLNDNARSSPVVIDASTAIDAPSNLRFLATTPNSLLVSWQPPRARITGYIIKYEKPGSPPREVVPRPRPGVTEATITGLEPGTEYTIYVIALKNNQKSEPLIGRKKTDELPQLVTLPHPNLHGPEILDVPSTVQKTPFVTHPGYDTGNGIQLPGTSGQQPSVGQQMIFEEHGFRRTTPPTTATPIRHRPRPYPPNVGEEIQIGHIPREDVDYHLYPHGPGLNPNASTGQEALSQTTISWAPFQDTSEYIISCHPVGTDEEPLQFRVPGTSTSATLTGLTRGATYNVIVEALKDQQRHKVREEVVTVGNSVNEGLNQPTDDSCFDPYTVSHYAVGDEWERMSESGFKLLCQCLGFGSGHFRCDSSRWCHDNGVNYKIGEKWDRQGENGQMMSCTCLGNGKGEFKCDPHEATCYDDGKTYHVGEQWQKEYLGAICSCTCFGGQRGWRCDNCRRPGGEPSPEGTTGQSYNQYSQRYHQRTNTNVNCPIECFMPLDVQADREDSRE

Molecule | inhibition of fibronectin binding to type I collagen (in words) (fibronectin [2]) | inhibition of fibronectin binding to immobilized peptide GlyGlyTrpSerHisTrp (in words) (fibronectin [1]) | also measured
fetuin: control protein [reference compound] |  |  | IC50 for competition of 125I-fibronectin binding to peptide GlyGlyTrpSerHisTrp (fibronectin [1]): > 200 µg/mL
GGWTHW [GlyGlyTrpThrHisTrp] | inactive |  | 
transferrin [reference compound] |  |  | IC50 for competition of 125I-fibronectin binding to peptide GlyGlyTrpSerHisTrp (fibronectin [1]): > 200 µg/mL
fibronectin |  | competed | 
GGWSHW [Peptide 300, GGWSHW] |  |  | IC50 (fibronectin [2]): 40 µM; IC50 (fibronectin [1]): 27 µM
GGWSHY [GlyGlyTrpSerHisTyr] | inactive | inactive | inhibition of fibronectin binding to gelatin (in words) (fibronectin [3]): inactive
thrombospondin: Human platelet thrombospondin, purified |  | competed | 
GGWSKW [GlyGlyTrpSerLysTrp] | inactive | inactive | inhibition of fibronectin binding to gelatin (in words) (fibronectin [3]): inactive
AAWSHW [AlaAlaTrpSerHisTrp] | inactive |  | 
DGWSHW [AspGlyTrpSerHisTrp] | inactive |  | 
DGWSPW [Peptide 317, DGWSPW] |  |  | binding of fibronectin to peptide (in words) (fibronectin [4]): inactive
GGYSHW [GlyGlyTyrSerHisTrp] | inactive | inactive | inhibition of fibronectin binding to gelatin (in words) (fibronectin [3]): inactive
WSHWSP [Peptide 292, WSHWSP] | inactive |  | 
GGWGPW [Peptide 318, GGWGPW] |  |  | binding of fibronectin to peptide (in words) (fibronectin [4]): inactive
B1 |  |  | IC50 for competition of 125I-fibronectin binding to peptide GlyGlyTrpSerHisTrp (fibronectin [1]): > 200 µg/mL
